Results published in patent publication US9879050B2, “Substituted urea depsipeptide analogs as activators of the CLPP endopeptidase” (priority 2013, dated 2018).
≈ marks a conversion by molar mass, not a printed value. Read-outs that look alike come from different tables or passages of the source.

What was measured:
Sa-ClpP [1] = target: T1, Sa-ClpP (Staphylococcus aureus, UniProt Q2G036); experiment: ADEP displacement fluorescence polarization assay; assay type: binding, S. aureus
T1 construct: made in house; host or cells: E. coli BL21 (DE3)
T1 sequence (Q2G036 whole entry): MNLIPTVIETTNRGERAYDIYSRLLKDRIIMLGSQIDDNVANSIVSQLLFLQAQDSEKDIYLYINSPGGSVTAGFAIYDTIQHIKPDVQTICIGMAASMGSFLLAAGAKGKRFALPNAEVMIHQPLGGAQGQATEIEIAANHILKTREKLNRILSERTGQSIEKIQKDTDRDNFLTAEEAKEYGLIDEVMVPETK
Method: A fluorescence polarization (FP) assay was used to determine the activity of the disclosed compounds in displacing an ADEP analogue from ClpP. Briefly, the assay was performed in black 384 well, flat bottom, low volume plates (Greiner Bio-One, Monroe, N.C., catalog #784076). 20 μL of a pre-equilibrated (1 hr, room temperature) master mix (1 μM Sa-ClpP, 2% DMSO (v/v) and 50 nM FP probe in Tris*HCl, pH 8.0)) was pipetted into each well using a Well-Mate (Thermo Scientific, Waltham, Mass.). Sa-ClpP was prepared as described above for the ClpP activation assay. The FP probe was ADEP 2591 (structure shown above). The ADEP 2591 comprises a TAMRA fluorophore linked to a core based on modified ADEP 2378 via a short alkyl linker. Using pin transfer, approximately 0.4 μL (2% v/v DMSO) of each compound or control was added per well. After addition of compounds and controls, plates were allowed to incubate for an additional 120 minutes at room temperature. All assays were performed in triplicate. Polarization was monitored using an EnVision Multilabel reader (Perkin-Elmer, Waltham, Mass.) by exciting the FP probe at 530±25 nm, and monitoring fluorescence intensity of both parallel and perpendicular polarized light at 579±25 nm. Readout was in millipolarization units (mP).
Signal gain and G factors were determined in wells containing 20 μM ADEP 2378, which had been previously verified (data not shown) as containing completely unbound ADEP 2591. Data collected was normalized to values obtained from positive (20 μM ADEP 2378) or negative (DMSO) controls. Curves were fit with non-linear regression using the equation “log [inhibitor]vs. Response-variable slope (four parameters)-symmetrical” in the program Prism 6 (GraphPad Software, La Jolla, Calif. USA, www.graphpad.com). The structures for ADEP 2378 and ADEP 2591 are shown above. ADEP 2378 is (E)-N-((S)-1-(((2R,6S,8aS,14aS,20S,23aS)-2,6-dimethyl-5,8,14,19,23-pentaoxooctadecahydro-1H,5H,14H,19H-pyrido[2,1-i]dipyrrolo[2,1-c:2′,1′-1][1]oxa[4,7,10,13]tetraazacyclohexadecin-20-yl)amino)-1-oxo-3-phenylpropan-2-yl)pent-2-enamide. ADEP 2591 is 5-(3-(3-((6S,9S,11aS,17S,20aS)-6,10-dimethyl-5,8,11,16,20-pentaoxo-17-((S)-2-((E)-pent-2-enamido)-3-phenylpropanamido)hexadecahydro-1H,5H,16H-dipyrrolo[2,1-c:2′,1′-1][1]oxa[4,7,10,13]tetraazacyclohexadecin-9-yl)propyl)thioureido)-2-(6-(dimethylamino)-3-(dimethyliminio)-3H-xanthen-9-yl)benzoate.

[2] = Cytotoxicity assay, CellTiter-Glo cell viability; assay type: cell-based; details: African green monkey
Method: Cytotoxicity was determined by determining the effect of compounds on cell viability. Vero (kidney epithelial cells; ATCC CCL-81) monolayers were trypsinized and 5000 cells/well were seeded (10-15% confluency) into white-wall, flat bottom 96 well microwell plates (Corning) using enriched Dulbecco's Modified Eagle's Medium (Hyclone: DMEM/High Glucose) containing 10% Fetal Bovine Serum (ATCC-30-2020). Plates were incubated overnight at 37° C. in the presence of 5% CO2. Drug-free media was then replaced with media containing serial dilutions of test compound or DMSO carrier. After an additional 72 hours of incubation, viability was indirectly measured using the CellTiter-Glo® Luminescent Cell Viability (Promega) assay. Assay plates were read at peak emission wavelength of 560 nm using a EnVision® Multilabel Plate Reader (Perkin Elmer) or PHERAstar FS Multilabel reader (BMG, Cary, N.C.). […] USA, www.graphpad.com]. For each experiment, compounds were tested in duplicate. IC50 values presented are the range of two biologically independent experiments.

Sa-ClpP [3] = target: T1, Sa-ClpP; experiment: ClpP activation, EnzCheck Protease Assay with Bodipy-FL casein (second described method); assay type: biochemical, S. aureus
Method: Alternatively, the assay was carried out using EnzCheck Protease Assay (Molecular Probes, Catalog #E6638). The assay was performed in black 384 well, flat bottom, low volume plates (Greiner Bio-One, Monroe, N.C., catalog #784076). 10 μL of Tris.HCl buffer, pH 8.0 with 0.01% Triton X-100 was pipetted into each well using a Well-Mate (Thermo Scientific, Waltham, Mass.). 0.4 μL test compounds or controls (2% DMSO v/v) were added to each well using a Biomek FX liquid handling robot (Beckman Coulter, Indianapolis Ind.). After addition of test compounds and controls, 10 μL of master mix containing 2 μM Sa-ClpP and 2 μM substrate (Bodipy-FL labeled casein) in Tris*HCl buffer, pH 8.0 with 0.01% (v/v) Triton X-100, was pipetted into each well. All assays were performed in triplicate, under linear velocity conditions. Increase in fluorescent signal following activation of Sa-ClpP by test compounds and controls was measured over time period of 30 mins using filters with excitation at 485±15 nm and emission at 520±25 nm on a PHERAstar FS Multilabel reader (BMG, Cary, N.C.). […] Data analysis was done by measuring rate of casein degradation over time (slopes). Computed degradation rates (slopes) were normalized to positive (ADEP4) or negative (DMSO) controls. Using nonlinear regression curve fitting EC50 values and % activation were determined using the equation “log [agonist]vs. Response-variable slope (four parameters)-symmetrical” in the program Prism 6 (GraphPad Software, La Jolla, Calif. USA, www.graphpad.com).

S. aureus USA 300 ΔClpP = experiment: Minimal inhibitory concentration, microbroth dilution; assay type: cell-based, Staphylococcus aureus; details: ClpP inactivated strain
Method: (§1) Minimal inhibitory concentrations (“MICs”) were determined using the microbroth dilution method according to Clinical Laboratory Standards Institute (CLSI; National, C.F. C. L. S., Methods for Dilution Antimicrobial Susceptibility Tests for Bacteria Grow aerobically-Seventh Edition: Approved Standard M7-A7, CLSI, Wayne, Pa., USA, 2008) and were read by visual inspection. Two fold serial dilutions of test compound in 100 μL of the appropriate broth media were first prepared in 96-well round bottom microtiter plates (Nalgene Nunc International, Rochester, N.Y., USA). An equivalent volume (100 μL) of bacterial broth inocula containing approximately 10^5 bacterial cfu/mL was added to each well to give final concentrations of test compound starting at 200 μM. The plates were then incubated aerobically at 37° C. All strains were incubated overnight. After incubations, in all cases the MIC was recorded as the lowest concentration of drug that prevented bacterial growth. The bacterial strains for which MIC was determined as described in Table 4.

S. pneumoniae R6 = experiment: as above; assay type: cell-based
Method: (§2) Minimal inhibitory concentrations (“MICs”) were determined using the microbroth dilution method according to Clinical Laboratory Standards Institute (CLSI; National, C.F. C. L. S., Methods for Dilution Antimicrobial Susceptibility Tests for Bacteria Grow aerobically-Seventh Edition: Approved Standard M7-A7, CLSI, Wayne, Pa., USA, 2008) and were read by visual inspection. Two fold serial dilutions of test compound in 100 μL of the appropriate broth media were first prepared in 96-well round bottom microtiter plates (Nalgene Nunc International, Rochester, N.Y., USA). […] The plates were then incubated aerobically at 37° C. All strains were incubated overnight. After incubations, in all cases the MIC was recorded as the lowest concentration of drug that prevented bacterial growth. The bacterial strains for which MIC was determined as described in Table 4.

S. aureus ATCC 29213 = experiment: as above; assay type: cell-based; details: Staphylococcus aureus, ATCC29213, read-out: Minimal Inhibitory Concentration S. aureus ATCC 29213
Method: as §1

S. pyogenes ATCC 700294 = experiment: as above; assay type: cell-based; details: Streptococcus pyogenes, ATCC700294, read-out: Minimal Inhibitory Concentration S. pyogenes ATCC 700294
Method: as §2

B. subtilis ATCC 23857 = experiment: as above; assay type: cell-based; details: Bacillus subtilis, ATCC23857, read-out: Minimal Inhibitory Concentration B. subtilis ATCC 23857
Method: as §1

[4] = Streptococcus pneumoniae, R6; read-out: Minimal Inhibitory Concentration S. pneumoniae R6
[5] = Vero kidney epithelial cells (ATCC CCL-81), Vero cells, 72 hours, read-out: Cytotoxicity IC50
[6] = 1 μM Sa-ClpP, 50 nM FP probe ADEP 2591, read-out: ADEP Displacement IC50
[7] = read-out: ClpP Activation EC50 (converted)
[8] = Streptococcus pneumoniae, R6, read-out: Minimal Inhibitory Concentration S. pneumoniae R6

SMILES	IC50 (Sa-ClpP [1]) [µM]	IC50 at 72 h [2] [µM]	EC50 (Sa-ClpP [3]) [µM]	Minimal Inhibitory Concentration S. aureus USA 300 ΔClpP (S. aureus USA 300 ΔClpP) [µM]	MIC (S. pneumoniae R6; [4]) [µM]	IC50 at 72 h [2, 5] [µM]	IC50 (Sa-ClpP [1]; [6]) [µM]	MIC (S. aureus ATCC 29213) [µM]	IC50 at 72 h ([2]; Vero cells, 72 hours, read-out: Cytotoxicity IC50) [µM]	EC50 (Sa-ClpP [3]; [7]) [µM]	MIC (S. pneumoniae R6; [8]) [µM]	MIC (S. pyogenes ATCC 700294) [µM]	MIC (B. subtilis ATCC 23857) [µM]
C[C@@H]1CC2C(=O)O[C@@H](C)[C@H](NC(=O)[C@H](Cc3cc(F)cc(F)c3)NC(=O)Nc3ccc(OC(F)(F)F)cc3)C(=O)N3CCCC3C(=O)N3CCCCC3C(=O)N[C@@H](C)C(=O)N2C1 (stereo partly drawn) [Compound 40, (S)-3-(3,5-Difluorophenyl)-2-(3-(4-(Trifluoromethoxy)Phenyl)Ureido)-N-((2R,6S,8aS,14aS,20S,21S,23aS)-2,6,21-Trimethyl-5,8,14,19,23-Pentaoxooctadecahydro-1H,5H,14H,19H-Pyrido [2,1-I]Dipyrrolo[2,1-C:2′,1′-L][1]Oxa[4,7,10,13]Tetraazacyclohexadecin-20-Yl)Propanamide]	12.7 ± 0.7	43.8 ± 5.1	0.36 ± 0.03	25	0.1 (≈ 0.0878 µg/mL)	–	–	–	–	–	–	–	–
C[C@H]1CC2C(=O)OC[C@H](NC(=O)[C@H](Cc3ccccc3)NC(=O)Nc3ccc(OC(F)(F)F)cc3)C(=O)N3CCCC3C(=O)N3CCCCC3C(=O)N[C@@H](C)C(=O)N2C1 (stereo partly drawn) [Compound 44, (S)—N-((2S,6S,8aS,14aS,20S,23aS)-2,6-Dimethyl-5,8,14,19,23-Pentaoxooctadecahydro-1H,5H,14H,19H-Pyrido[2,1-I]Dipyrrolo[2,1-C:2′,1′-L][1]Oxa[4,7,10,13]Tetraazacyclohexadecin-20-Yl)-3-Phenyl-2-(3-(4-(Trifluoromethoxy)Phenyl)Ureido)Propanamide]	6.76 ± 0.3	–	0.28 ± 0.01	50	0.1 (≈ 0.0828 µg/mL)	83.8 ± 6.6	–	–	–	–	–	–	–
Cc1ccc(NC(=O)N[C@@H](Cc2cc(F)cc(F)c2)C(=O)N[C@H]2COC(=O)C3C[C@H](C)CN3C(=O)[C@H](C)NC(=O)C3CCCCN3C(=O)C3CCCN3C2=O)cc1 (stereo partly drawn) [Compound 45, (S)-3-(3,5-Difluorophenyl)-N-((2S,6S,8aS,14aS,20S,23aS)-2,6-Dimethyl-5,8,14,19,23-Pentaoxooctadecahydro-1H,5H,14H,19H-Pyrido[2,1-I]Dipyrrolo[2,1-C:2′,1′-L][1]Oxa[4,7,10,13]Tetraazacyclohexadecin-20-Yl)-2-(3-(P-Tolyl)Ureido)Propanamide]	–	–	–	100	–	–	6.62 ± 0.2	0.4 (≈ 0.318 µg/mL)	56.8 ± 6.7	0.54 ± 0.03	0.1 (≈ 0.0794 µg/mL)	0.4 (≈ 0.318 µg/mL)	–
C[C@H]1CC2C(=O)OC[C@H](NC(=O)[C@H](Cc3cc(F)cc(F)c3)NC(=O)Nc3ccc4c(c3)OCO4)C(=O)N3CCCC3C(=O)N3CCCCC3C(=O)N[C@@H](C)C(=O)N2C1 (stereo partly drawn) [Compound 46, (S)-2-(3-(Benzo[D][1,3]Dioxol-5-Yl)Ureido)-3-(3,5-Difluorophenyl)-N-((2S,6S,8aS,14aS,20S,23aS)-2,6-Dimethyl-5,8,14,19,23-Pentaoxooctadecahydro-1H,5H,14H,19H-Pyrido[2,1-I]Dipyrrolo[2,1-C:2′,1′-L][1]Oxa[4,7,10,13]Tetraazacyclohexadecin-20-Yl)Propanamide]	4.61 ± 0.2	–	0.32 ± 0.02	200	0.4 (≈ 0.33 µg/mL)	71.8 ± 5.4	–	–	–	–	–	–	–
Cc1ccc(NC(=O)N[C@@H](Cc2cc(F)cc(F)c2)C(=O)N[C@@H]2C(=O)N3CCCC3C(=O)N3CCOCC3C(=O)N[C@@H](C)C(=O)N3C[C@H](C)CC3C(=O)O[C@H]2C)cc1 (stereo partly drawn) [Compound 47, (S)-3-(3,5-Difluorophenyl)-2-(3-(P-Tolyl)Ureido)-N-((6aS,12S,13S,15aS,17R,21S,23aS)-13,17,21-Trimethyl-6,11,15,20,23-Pentaoxooctadecahydro-6H,11H,15H-[1,4]Oxazino[3,4-I]Dipyrrolo[2,1-C:2′,1′-L][1]Oxa[4,7,10,13]Tetraazacyclohexadecin-12-Yl)Propanamide]	–	–	–	>200	–	–	7.01 ± 0.3	0.003 (≈ 0.00243 µg/mL)	–	0.4 ± 0.01	0.002 (≈ 0.00162 µg/mL)	0.02 (≈ 0.0162 µg/mL)	0.8 (≈ 0.648 µg/mL)
